pEC50: −log10 of the molar value.
Key:
[1] = molecular target: T1, CIC-1 ion channel (Rattus norvegicus, UniProt P35524); assay: Electrophysiological measurement of compound inhibition of CIC-1 in rat muscle (Gm in soleus fibres, three micro-electrodes); assay type: cell-based; conditions: Gm in individual fibres of whole rat soleus muscles, approx. 30° C., four increasing compound concentrations; read-out: Potency Range (EC50, inhibition of CIC-1 ion channel)
T1 construct: from tissue; host or cells: whole soleus muscle of 12-14 week old Wistar rats
T1 sequence (P35524 1-994): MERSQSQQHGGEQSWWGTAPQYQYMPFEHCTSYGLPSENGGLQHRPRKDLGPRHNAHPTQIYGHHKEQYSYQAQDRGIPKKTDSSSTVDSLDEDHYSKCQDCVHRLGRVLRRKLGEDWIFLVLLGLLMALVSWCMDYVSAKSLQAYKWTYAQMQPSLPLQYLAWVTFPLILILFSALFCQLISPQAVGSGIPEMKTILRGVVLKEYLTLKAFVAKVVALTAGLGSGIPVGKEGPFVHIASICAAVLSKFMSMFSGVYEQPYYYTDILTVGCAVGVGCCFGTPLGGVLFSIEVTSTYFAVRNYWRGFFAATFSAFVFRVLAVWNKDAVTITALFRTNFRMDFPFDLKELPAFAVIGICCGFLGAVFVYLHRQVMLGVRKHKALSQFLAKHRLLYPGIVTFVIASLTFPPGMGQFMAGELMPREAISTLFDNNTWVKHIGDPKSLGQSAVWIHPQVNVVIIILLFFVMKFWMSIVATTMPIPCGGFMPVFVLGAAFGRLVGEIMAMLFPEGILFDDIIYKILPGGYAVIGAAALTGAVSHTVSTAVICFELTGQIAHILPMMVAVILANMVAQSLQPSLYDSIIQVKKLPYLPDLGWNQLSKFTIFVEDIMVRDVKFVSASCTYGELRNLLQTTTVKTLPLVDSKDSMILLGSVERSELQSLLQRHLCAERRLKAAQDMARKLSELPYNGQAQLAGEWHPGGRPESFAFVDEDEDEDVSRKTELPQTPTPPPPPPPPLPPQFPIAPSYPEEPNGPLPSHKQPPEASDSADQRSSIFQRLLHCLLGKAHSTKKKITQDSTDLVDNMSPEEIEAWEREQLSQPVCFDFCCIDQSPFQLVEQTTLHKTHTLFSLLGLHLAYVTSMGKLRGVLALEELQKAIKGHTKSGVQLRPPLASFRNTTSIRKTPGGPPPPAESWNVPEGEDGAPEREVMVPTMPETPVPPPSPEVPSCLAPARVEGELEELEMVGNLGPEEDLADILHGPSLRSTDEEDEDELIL
Procedure: Apparent CIC-1 affinity was reported by the concentration of compound at which 50% of the compound's full inhibition of CIC-1 was observed (EC50) (see also WO2019/115777).
Experimentally, Gm was measured in individual fibres of whole rat soleus muscles using a three micro-electrodes technique described in this example and in full detail elsewhere (Riisager et al., Determination of cable parameters in skeletal muscle fibres during repetitive firing of action potentials. Journal of Physiology, 2014, 592, 4417-4429). Briefly, intact rat soleus muscles were dissected out from 12-14 week old Wistar rats and placed in an experimental chamber that was perfused with a standard Krebs Ringer solution containing 122 mM NaCl, 25 mM NaHCO3, 2.8 mM KCl, 1.2 mM KH2PO4, 1.2 mM MgSO4, 1.3 mM CaCl2, 5.0 mM D-glucose. During experiments, the solution was kept at approx. 30° C. and continuously equilibrated with a mixture of 95% O2 and 5% CO2, pH ~7.4. The experimental chamber was placed in Nikon upright microscope that was used to visualize individual muscle fibres and the three electrodes (glass pipettes filled with 2 M potassium citrate). For Gm measurements, the electrodes were inserted into the same fibre with known inter-electrode distances of 0.35-0.5 mm (V1-V2, X1) and 1.1-1.5 mm (V1-V3, X3). The membrane potential of the impaled muscle fibre was recorded by all electrodes. Two of the electrodes were furthermore used to inject 50 ms current pulses of −30 nA. […] The steady state voltage deflection at each distance was divided by the magnitude of current injected (−30 nA) and the resulting transfer resistances were plotted against inter-electrode distance and the data was fitted to a mono-exponential function from which Gm could be calculated using linear cable theory.
To establish a dose response relationship, Gm was first determined in 10 muscle fibres in the absence of compound and then at four increasing compound concentrations with Gm determinations in 5-10 fibres at each concentration. The average Gm values at each concentration were plotted against compound concentration and the data was fitted to sigmoidal function to obtain an EC5o value.

[2] = test system: isolated rat soleus nerve-muscle preparations; assay: Measurement of force in an in vitro model: recovery of nerve-stimulated contractile force after tubocurarine; conditions: 40 min, after 40 mins of compound exposure, tubocurarine (115 nM) for 90 minutes, read-out: Point increase (%): percentage increase of initial force that was restored; for activation at 50 µM: 50 μM of test compound; for activation at 10 µM: 10 μM of test compound
Procedure: In one aspect, the invention relates to a method for recovery of force in muscles with neuromuscular dysfunction, said method comprising administering a compound or a composition as defined herein to a subject in need thereof. The term “recovery of force in muscles with neuromuscular dysfunction” as used herein refers to the ability of a compound to recover contractile force in nerve-stimulated healthy rat muscle after exposure to submaximal concentration (115 nM) of tubocurarine for 90 minutes.
Recovery of force is quantified as the percentage of the force prior to tubocurarine that is recovered after addition of the compound. In one embodiment, said recovery of force is >5%, such as >10%, such as >15%, such as >20%, such as >25%, such as >30%, such as >35%.
The current disclosure relates to compounds that inhibit CIC-1 ion channels and increase muscle excitability and thereby improve muscle function in clinical conditions where muscle activation is failing. Such conditions result in loss of contractile function of skeletal muscle, weakness and excessive fatigue. In this series of experiments the compounds were tested for their ability to restore contractile function of isolated rat muscle when the neuromuscular transmission had been compromised akin to neuromuscular disorders.
Experimentally, soleus muscles from 4-5 week old rats were isolated with the motor nerve remaining attached. The nerve-muscle preparations were mounted in experimental setups that enabled electrical stimulation of the motor nerve. Stimulation of the motor nerve led to activation of the muscle fibres and ensuing force production that was recorded. The nerve-muscle preparations were also in these experiments incubated in the standard Krebs Ringer (see example 15) and the solution was heated to 30° C. and continuously equilibrated with a mixture of 95% O2 and 5% CO2, pH ~7.4.
After mounting the nerve-muscle preparation in the experimental setup, the contractile function of the muscle was initially assessed under the control conditions. Sub-maximal concentration of tubocurarine (115 nM), an acetylcholine receptor antagonist, was then added to the experimental bath to impose partial inhibition of the ability of the motor nerve to activate the muscle fibres. The experimental condition mimics the failing neuromuscular transmission in a range of neuromuscular disorders. After addition of tubocurarine the contractile force declined over the next 90 minutes to 10-50% of the control force. The test compound was then added to obtain the required compound concentration in the bath and the contractile force recovered was measured. To quantify the ability of the compound to restore force the percentage of the initial force that was restored was determined after 40 mins of compound exposure and the point increase is reported in Tables 3 to 7.

Row | Compound | pEC50 [1] | activation at 50 µM [2] | activation at 10 µM [2]
1 | Cc1c(Cl)cc2c(c1C(=O)O)CCC2 [Compound A-1, 6-Chloro-5-methyl-2,3-dihydro-1H-indene-4-carboxylic acid] | 4.70 to 5.00 | 23% | 
2 | O=C(O)c1cc(Cl)cc2c1CCCC2 [Compound A-3, 3-chloro-5,6,7,8-tetrahydronaphthalene-1-carboxylic acid] | 5.00 to 5.70 |  | 38%
3 | Cc1cc2c(c(C(=O)O)c1C)CCC2 [Compound A-4, 5,6-dimethyl-2,3-dihydro-1H-indene-4-carboxylic acid] | 4.70 to 5.00 | 30% | 
4 | Cc1cc2c(c(C(=O)O)c1C)CCCC2 [Compound A-5, 2,3-dimethyl-5,6,7,8-tetrahydronaphthalene-1-carboxylic acid] | 4.70 to 5.00 | 43% | 
5 | COc1c(Cl)cc2c(c1C(=O)O)CCC2 [Compound A-6, 6-Chloro-5-methoxy-2,3-dihydro-1H-indene-4-carboxylic acid] | 5.70 to 6.70 |  | 42%
6 | COc1c(Cl)cc2c(c1C(=O)O)CCCC2 [Compound A-8, 3-Chloro-2-methoxy-5,6,7,8-tetrahydronaphthalene-1-carboxylic acid] | 5.70 to 6.70 |  | 50%
7 | Cc1c(Cl)cc2c(c1C(=O)O)CCCC2 [Compound A-9, 3-Chloro-2-methyl-5,6,7,8-tetrahydronaphthalene-1-carboxylic acid] | 5.00 to 5.70 |  | 14%
8 | O=C(O)c1c2c(cc(Cl)c1OC(F)F)CCC2 [Compound A-10, 6-Chloro-5-(difluoromethoxy)-2,3-dihydro-1H-indene-4-carboxylic acid] | 5.00 to 5.70 |  | 36%
9 | CCc1c(Cl)cc2c(c1C(=O)O)CCC2 [Compound A-13, 6-Chloro-5-ethyl-2,3-dihydro-1H-indene-4-carboxylic acid] | 4.70 to 5.00 | 26% | 
10 | Cc1c(Cl)cc2c(c1C(=O)O)OCCC2 [Compound A-14, 6-Chloro-7-methyl-3,4-dihydro-2H-1-benzopyran-8-carboxylic acid] | 4.70 to 5.00 | 39% | 
11 | COc1c(Cl)cc2c(c1C(=O)O)OCC2 [Compound A-15, 5-Chloro-6-methoxy-2,3-dihydro-1-benzofuran-7-carboxylic acid] | 5.00 to 5.70 | 40% | 
12 | COc1c(Cl)cc2c(c1C(=O)O)C1CCC2C1 (stereo not drawn) [Compound A-16, 5-Chloro-4-methoxytricyclo[6.2.1.0^2,7]undeca-2(7),3,5-triene-3-carboxylic acid] | 5.70 to 6.70 |  | 43%
13 | O=C(O)c1cc(Cl)c(F)c2c1CCCC2 [Compound A-17, 3-Chloro-4-fluoro-5,6,7,8-tetrahydronaphthalene-1-carboxylic acid] | 4.70 to 5.00 | 41% | 
14 | COc1c(F)cc2c(c1C(=O)O)CCCC2 [Compound A-18, 3-Fluoro-2-methoxy-5,6,7,8-tetrahydronaphthalene-1-carboxylic acid] | 5.70 to 6.70 |  | 46%
15 | COc1c(Cl)c(F)c2c(c1C(=O)O)CCCC2 [Compound A-19, 3-Chloro-4-fluoro-2-methoxy-5,6,7,8-tetrahydronaphthalene-1-carboxylic acid] | 5.70 to 6.70 | 41% | 
16 | Cc1cc2c(c(C(=O)O)c1Cl)C1CCC2C1 (stereo not drawn) [Compound A-20, 4-chloro-5-methyltricyclo[6.2.1.0^2,7]undeca-2,4,6-triene-3-carboxylic acid] | 5.00 to 5.70 | 38% | 
17 | Cc1c(Cl)cc2c(c1C(=O)O)C1CCC2C1 (stereo not drawn) [Compound A-21, 5-chloro-4-methyltricyclo[6.2.1.0^2,7]undeca-2(7),3,5-triene-3-carboxylic acid] | 4.70 to 5.00 | 42% | 
18 | COc1c(Cl)cc2c(c1C(=O)O)CCCCC2 [Compound A-22, 3-Chloro-2-methoxy-6,7,8,9-tetrahydro-5H-benzo[7]annulene-1-carboxylic acid] | 5.70 to 6.70 |  | 33%
19 | CSc1c(Cl)cc2c(c1C(=O)O)CCC2 [Compound A-23, 6-Chloro-5-(methylsulfanyl)-2,3-dihydro-1H-indene-4-carboxylic acid] | 5.00 to 5.70 | 44% | 
20 | COc1cc2c(c(C(=O)O)c1Cl)CCCCC2 [Compound A-24, 2-Chloro-3-methoxy-6,7,8,9-tetrahydro-5H-benzo[7]annulene-1-carboxylic acid] | 5.00 to 5.70 | 43% | 
21 | O=C(O)c1c2c(cc(Cl)c1OC(F)F)CCCC2 [Compound A-25, 3-Chloro-2-(difluoromethoxy)-5,6,7,8-tetrahydronaphthalene-1-carboxylic acid] | 5.70 to 6.70 |  | 43%
22 | O=C(O)c1c(F)c(Cl)cc2c1CCCC2 [Compound A-26, 3-Chloro-2-fluoro-5,6,7,8-tetrahydronaphthalene-1-carboxylic acid] | 5.70 to 6.70 |  | 52%
23 | O=C(O)c1c(Cl)c(F)cc2c1CCCC2 [Compound A-27, 2-chloro-3-fluoro-5,6,7,8-tetrahydronaphthalene-1-carboxylic acid] | 5.00 to 5.70 |  | 38%
24 | Cc1cc2c(c(C(=O)O)c1Cl)CCCC2 [Compound A-28, 2-chloro-3-methyl-5,6,7,8-tetrahydronaphthalene-1-carboxylic acid] | 5.00 to 5.70 | 39% | 
